Results published in US6437006B1, “Pharmaceutical carrier formulation” (American Cyanamid Company, priority 1999, dated 2002).

melting point: 141 to 143 °C
SMILES: Cc1ccn(-c2ccc(C(=O)N3Cc4cccn4Cc4ccccc43)c(Cl)c2)n1 [Isomer A]
